Article PMC8788626 (Lung cancer (Amsterdam, Netherlands), 2017)
Where “and” joins values, the source holds several entries; their conditions need not be identical. Equal entries are not always repeated.

Columns and labels:
[1] = system: lung cancers harboring EGFR T790M; type: in vivo, patients; conditions: Cohort A
[2] = system: T790M-negative, otherwise molecularly unselected advanced NSCLC; assay: Phase 2 study of intermittent pulse dacomitinib, efficacy, Cohort B; type: in vivo, patients; conditions: 95% CI 1.0–3.3 months
[3] = Plasma pharmacokinetics of dacomitinib and metabolite PF-05199265; type: in vivo, patients; conditions: for Pre-dose (0 h) plasma concentration, mean (CV%) / Pre-dose (0 h) plasma concentration, median: Cycle 0, Day 4, 45 mg dacomitinib q12 h
QT interval = assay: ECG analysis of QTc interval change from baseline; type: in vivo, patients
[4] = system: patients with advanced NSCLC; conditions: in vivo
[5] = continuous daily dosing; cited from earlier work
EGFR-mutant lung cancers = conditions: first line, subset with EGFR-mutant lung cancers; cited from earlier work
EGFR-mutant lung cancer = conditions: first-line therapy, standard daily dosing, ARCHER 1050; cited from earlier work
[6] = Cycle 0, Day 4, following 6 doses (q12 h) of 45 mg dacomitinib
[7] = Cycle 1, Day 1, following 3 day washout after 6 doses (q12 h) of 45 mg dacomitinib
[8] = Cycle 1, Day 4, following 5 doses (q12 h) of 60 mg dacomitinib

**Q.** For `COc1cc2ncnc(Nc3ccc(F)c(Cl)c3)c2cc1NC(=O)/C=C/CN1CCCCC1` [dacomitinib], which “ORR (overall response rate)” value ([1]; 16 patients, 95% CI 0.2%–30.2%, p-value = 0.15) is on record?
**A.** The value was 6.3%.

**Q.** What about the “median PFS” value ([1]; 95% CI 1.4–4.4 months) of the same compound?
**A.** The value was 2.3 months.

**Q.** And the “median PFS” value [2]?
**A.** The value was 1.6 months.

**Q.** And the “Pre-dose (0 h) plasma concentration, mean (CV%)” value [3]?
**A.** The value was 76.4 ng/mL.

**Q.** What about the “Pre-dose (0 h) plasma concentration, median” value [3] of the same compound?
**A.** The value was 68.4 ng/mL.

**Q.** And the “Pre-dose (0 h) plasma concentration, mean (CV%)” value ([3]; listed as Dacomitinib)?
**A.** The value was 76.4 (43) ng/mL.

**Q.** What about the “Cmin, mean (CV%)” value [3, 6] of the same compound?
**A.** The value was 71.3 (39) ng/mL.

**Q.** And the “Cmin, median” value [3, 6]?
**A.** Its value is 65.6 ng/mL.

**Q.** What about the “Pre-dose plasma concentration, mean (CV%)” value [3, 7] of the same compound?
**A.** Its value is 32.1 (65) ng/mL.

**Q.** And the “Pre-dose plasma concentration, median” value [3, 7]?
**A.** The value was 26.9 ng/mL.

**Q.** And the “Pre-dose plasma concentration, mean (CV%)” value [3, 8]?
**A.** Its value is 108.1 (39) ng/mL.

**Q.** What about the “Pre-dose plasma concentration, median” value [3, 8] of the same compound?
**A.** Its value is 100 ng/mL.

**Q.** And the Tmax ([3]; human, plasma, oral, 45 mg)?
**A.** The Tmax was 6.1 h.

**Q.** What about the AUC(0-t) ([3]; human, plasma, oral, 45 mg, AUC0–10, mean (CV%), Cycle 0, Day 4, following 6 doses (q12 h) of 45 mg dacomitinib) of the same compound?
**A.** The AUC(0-t) was 794 ng·h/mL.

**Q.** What about the AUC(0-t) ([3]; human, plasma, oral, 45 mg, AUC0–10, median, Cycle 0, Day 4, following 6 doses (q12 h) of 45 mg dacomitinib) of the same compound?
**A.** The AUC(0-t) was 728 ng·h/mL.

**Q.** And the Cmax ([3]; human, plasma, oral, 45 mg, mean (CV%), Cycle 0, Day 4, following 6 doses (q12 h) of 45 mg dacomitinib)?
**A.** The Cmax was 96.8 ng/mL.

**Q.** And the Cmax ([3]; human, plasma, oral, 45 mg, median, Cycle 0, Day 4, following 6 doses (q12 h) of 45 mg dacomitinib)?
**A.** The Cmax was 90.7 ng/mL.

**Q.** What about the “upper limits of the 95% CI for the mean change from baseline in QTc (QTcB, QTcF, QTcS)” value (QT interval; all Cycle 0 day 4 time points, 45 mg q12 h) of the same compound?
**A.** The value was under 10 ms.

**Q.** And the “effect on cardiac repolarization” value (QT interval; at exposures comparable to steady state of 45 mg daily regimen)?
**A.** Its value is “no effects on cardiac repolarization”.

**Q.** And the “Grade 3 treatment-emergent lymphopenia” value ([4]; human)?
**A.** The value was 13.2%.

**Q.** What about the “frequency of the most frequent treatment-related toxicities (diarrhea, rash, stomatitis, nausea, dry skin, paronychia, fatigue, decreased appetite)” value ([4]; human) of the same compound?
**A.** Its value is > 20 % of patients.

**Q.** What about the “treatment-related serious adverse events: dehydration” value ([4]; human) of the same compound?
**A.** Its value is 2.

**Q.** What about the “treatment-related serious adverse events: diarrhea” value ([4]; human) of the same compound?
**A.** The value was 2.

**Q.** And the “treatment-related serious adverse events: nausea” value ([4]; human)?
**A.** The value was 1.

**Q.** What about the “Grade 3 hypermagnesemia, patients” value [4] of the same compound?
**A.** The value was “three”.

**Q.** And the “number of treatment-related serious adverse events” value [4]?
**A.** Its value is “five”.

**Q.** What about the “patients who discontinued study therapy due to a treatment-related adverse event” value [4] of the same compound?
**A.** Its value is “No patients”.

**Q.** What about the “patients with at least one treatment-related adverse event” value [4] of the same compound?
**A.** Its value is “All patients”.

**Q.** What about the “patients with treatment-related serious adverse events” value [4] of the same compound?
**A.** The value was “three”.

**Q.** And the “treatment-related cardiac adverse events” value [4]?
**A.** Its value is “no treatment-related cardiac adverse events”.

**Q.** What about the maximum tolerated dose [5] of the same compound?
**A.** Its maximum tolerated dose is 45 mg daily.

**Q.** What about the “estimated median progression-free survival” value (EGFR-mutant lung cancers) of the same compound?
**A.** Its value is 18.2 months.

**Q.** And the overall response rate (EGFR-mutant lung cancers)?
**A.** Its overall response rate is 76%.

**Q.** And the median progression-free survival (EGFR-mutant lung cancer)?
**A.** Its median progression-free survival is 14.7 months.

**Q.** Which “Pre-dose (0 h) plasma concentration, mean (CV%)” value [3] does the source give for `O=C(/C=C/CN1CCCCC1)Nc1cc2c(Nc3ccc(F)c(Cl)c3)ncnc2cc1O` [PF-05199265] here?
**A.** Its value is 7.1 ng/mL and 7.1 (161) ng/mL.

**Q.** What about the “Pre-dose (0 h) plasma concentration, median” value [3] of the same compound?
**A.** The value was 4.6 ng/mL.

**Q.** And the “AUC0–10, mean (CV%)” value [3, 6]?
**A.** The value was 75.0 (148) ng h/mL.

**Q.** What about the “AUC0–10, median” value [3, 6] of the same compound?
**A.** The value was 50.8 ng·h/mL.

**Q.** What about the “Cmax, mean (CV%)” value [3, 6] of the same compound?
**A.** Its value is 8.5 (150) ng/mL.

**Q.** And the “Cmax, median” value [3, 6]?
**A.** Its value is 5.9 ng/mL.

**Q.** And the “Cmin, mean (CV%)” value [3, 6]?
**A.** Its value is 6.8 (157) ng/mL.

**Q.** What about the “Cmin, median” value [3, 6] of the same compound?
**A.** The value was 4.5 ng/mL.

**Q.** What about the “Tmax, median (minimum–maximum)” value [3, 6] of the same compound?
**A.** The value was 5.6 (0–11.0) hr.

**Q.** What about the “Pre-dose plasma concentration, mean (CV%)” value [3, 7] of the same compound?
**A.** Its value is 3.8 (83) ng/mL.

**Q.** What about the “Pre-dose plasma concentration, median” value [3, 7] of the same compound?
**A.** The value was 2.8 ng/mL.

**Q.** What about the “Pre-dose plasma concentration, mean (CV%)” value [3, 8] of the same compound?
**A.** Its value is 9.0 (93) ng/mL.

**Q.** What about the “Pre-dose plasma concentration, median” value [3, 8] of the same compound?
**A.** The value was 7.43 ng/mL.
